Assay results from the Kinase Knowledgebase extract (Sharma et al. 2016).
pIC50: −log10 of the molar value.

Molecular target: EGFR (mouse) (UniProt P00533)
Conditions: nih3t3 fibroblast

SMILES | pIC50
Cc1c(CCC(=O)O)c[nH]c1/C=C1\C(=O)Nc2cc(-c3ccccc3)ccc21 | 4.66
CCOc1cccc(-c2ccc3c(c2)NC(=O)/C3=C\c2[nH]cc(C)c2CCC(=O)O)c1 | < 4.30
Cc1[nH]c(/C=C2\C(=O)Nc3ccc(Br)cc32)c(C)c1CCC(=O)O | < 4.30
Cc1c(CCC(=O)O)c[nH]c1/C=C1\C(=O)Nc2ccc(C(=O)O)cc21 | < 4.30
Cc1[nH]c(/C=C2\C(=O)Nc3ccc(C(=O)O)cc32)c(C)c1CCC(=O)O | < 4.30
Cc1c[nH]c(/C=C2\C(=O)Nc3ccccc32)c1CCC(=O)O | < 4.30
Cc1c[nH]c(/C=C2\C(=O)Nc3cccc(C)c32)c1CCC(=O)O | 4.54
Cc1c(CCC(=O)O)c[nH]c1/C=C1\C(=O)Nc2ccc(S(N)(=O)=O)cc21 | < 4.30
COc1cccc(-c2ccc3c(c2)NC(=O)/C3=C\c2[nH]cc(C)c2CCC(=O)O)c1 | 4.31
Cc1c(CCC(=O)O)c[nH]c1/C=C1\C(=O)Nc2ccccc21 | < 4.30
Cc1[nH]c(/C=C2\C(=O)Nc3cc(-c4ccccc4)ccc32)c(C)c1CCC(=O)O | 4.66
Cc1c[nH]c(/C=C2\C(=O)Nc3ccc(Br)cc32)c1CCC(=O)O | < 4.30
COc1cccc(-c2ccc3c(c2)NC(=O)/C3=C\c2[nH]c(C)c(CCC(=O)O)c2C)c1 | 4.62
COc1ccccc1-c1ccc2c(c1)NC(=O)/C2=C\c1[nH]cc(CCC(=O)O)c1C | 4.72
COc1ccc2c(c1)NC(=O)/C2=C\c1[nH]cc(CCC(=O)O)c1C | < 4.30
COc1ccc2c(c1)NC(=O)/C2=C\c1[nH]c(C)c(CCC(=O)O)c1C | < 4.30
